The values that follow are results of earlier work, collected in patent US20080253970A1, “Stable Pharmaceutical Drug Products” (Schering Corporation, priority 2007, published 2008).

In the case of `CC1(C)O[C@@H]2C[C@H]3[C@@H]4C[C@H](F)C5=CC(=O)C=C[C@]5(C)[C@H]4[C@@H](O)C[C@]3(C)[C@]2(C(=O)CO)O1` [flunisolide], the solubility in ethanol entry was “partially soluble in ethanol”.

Consider `C[N+]1(C)[C@@H]2C[C@@H](OC(=O)C(O)(c3cccs3)c3cccs3)C[C@H]1[C@@H]1O[C@@H]12` [tiotropium], for which the solubility in ethanol result is reported as “partially soluble in ethanol”.

In the case of `C[C@@H]1C[C@H]2[C@@H]3CCC4=CC(=O)C=C[C@]4(C)[C@@]3(Cl)[C@@H](O)C[C@]2(C)[C@@]1(OC(=O)c1ccco1)C(=O)CCl` [mometasone furoate, 9,21-Dichloro-11(beta), 17-dihydroxy-16(alpha)-methylpregna-1,4-diene-3,20-dione17-(2 Furoate)], the solubility in ethanol entry is on record as “partially soluble in ethanol”.
